According to the supplement of paper PMC4862054:

Tests used:
Assay in all cases: normalised viability (% of control), CellTiter-Blue; higher = more viable cells (about 100 = DMSO control)
BT-474 = details: 100 nM; incubation time: 72 h
Experimental: (§1)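 DSRT, CellTiter-Blue viability, 72 h incubation. Signal is normalised to DMSO and benzethonium chloride controls. Value is the normalised response at dose 3.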

BT-549 [1] = details: 100 nM; incubation time: 72 h
Experimental: as §1

CAL-120 [2] = details: 100 nM; incubation time: 72 h
Experimental: as §1

CAL-148 [3] = details: 10 nM; incubation time: 72 h
Experimental: as §1

CAL-51 [4] = details: 10 nM; incubation time: 72 h
Experimental: as §1

CAL-85-1 = details: 10 nM; incubation time: 72 h
Experimental: as §1

DU-4475 [5] = details: 10 nM; incubation time: 72 h
Experimental: as §1

HCC1143 [6] = details: 100 nM; incubation time: 72 h
Experimental: as §1

HCC1599 [7] = details: 100 nM; incubation time: 72 h
Experimental: as §1

HCC1937 [8] = details: 100 nM; incubation time: 72 h
Experimental: as §1

HDQ-P1 [9] = details: 10 nM; incubation time: 72 h
Experimental: as §1

Hs578T = details: 100 nM; incubation time: 72 h
Experimental: as §1

MDA-MB-231 = details: 100 nM; incubation time: 72 h
Experimental: as §1

MDA-MB-436 [10] = details: 100 nM; incubation time: 72 h
Experimental: as §1

MDA-MB-453 = details: 10 nM; incubation time: 72 h
Experimental: as §1

MDA-MB-468 = details: 100 nM; incubation time: 72 h
Experimental: as §1

MFM-223 [11] = details: 100 nM; incubation time: 72 h
Experimental: as §1

SK-BR-3 [12] = details: 100 nM; incubation time: 72 h
Experimental: as §1

BT-549 [13] = details: incubation time: 72 h
Outline: (§2)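 After 72 h on compound-loaded 384-well plates, breast cancer cell lines received 2.5 µl CellTiter-Blue reagent for 2 h at 37 °C. Fluorescence at 560/590 nm was scaled per plate so that vehicle was 100 and a positive kill control was 0. The value stands for normalised viability at a single listed concentration of the series.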

CAL-120 [14] = details: incubation time: 72 h
Outline: as §2

CAL-148 [15] = details: incubation time: 72 h
Outline: as §2

CAL-51 [16] = details: incubation time: 72 h
Outline: as §2

DU-4475 [17] = details: incubation time: 72 h
Outline: as §2

HCC1143 [18] = details: incubation time: 72 h
Outline: as §2

HCC1599 [19] = details: incubation time: 72 h
Outline: as §2

HCC1937 [20] = details: incubation time: 72 h
Outline: as §2

HDQ-P1 [21] = details: incubation time: 72 h
Outline: as §2

MDA-MB-436 [22] = details: incubation time: 72 h
Outline: as §2

MFM-223 [23] = details: incubation time: 72 h
Outline: as §2

SK-BR-3 [24] = details: incubation time: 72 h
Outline: as §2

COC1=C2C[C@@H](C)C[C@H](OC)[C@H](O)[C@@H](C)/C=C(\C)[C@H](OC(N)=O)[C@@H](OC)/C=C\C=C(/C)C(=O)NC(=CC1=O)C2=O [Geldanamycin]
Details	normalised viability [%]
BT-474	33.6
BT-549 [1]	39.3
CAL-51 [4]	104
CAL-85-1	105
CAL-120 [2]	25.1
CAL-148 [3]	104
DU-4475 [5]	119
HCC1143 [6]	44.3
HCC1599 [7]	83.9
HCC1937 [8]	31.3
HDQ-P1 [9]	109
Hs578T	56.8
MDA-MB-231	31.4
MDA-MB-436 [10]	20
MDA-MB-453	120
MDA-MB-468	33.8
MFM-223 [11]	50.6
SK-BR-3 [12]	22.8

normalised viability [%]
Details	3 nM	10 nM	30 nM	100 nM	1000 nM	10000 nM
BT-549 [13]	–	89.7	–	–	18	15.9
CAL-51 [16]	109	–	100	95.4	–	–
CAL-120 [14]	–	91	–	–	13.6	6.18
CAL-148 [15]	102	–	110	108	–	–
DU-4475 [17]	106	–	113	73.2	–	–
HCC1143 [18]	–	90.2	–	–	38.3	24.9
HCC1599 [19]	–	113	–	–	31.3	20.1
HCC1937 [20]	–	115	–	–	30.1	21.3
HDQ-P1 [21]	124	–	104	44.8	–	–
MDA-MB-436 [22]	–	107	–	–	15.7	16.9
MFM-223 [23]	–	103	–	–	17.7	8.14
SK-BR-3 [24]	–	101	–	–	14.9	9.38

O=P(O)(NCCCl)NCCCl [Ifosfamide mustard]
Details	normalised viability [%]
BT-474	112
BT-549 [1]	106
CAL-51 [4]	107
CAL-85-1	101
CAL-120 [2]	92.3
CAL-148 [3]	104
DU-4475 [5]	99.5
HCC1143 [6]	116
HCC1599 [7]	117
HCC1937 [8]	100
HDQ-P1 [9]	122
Hs578T	72.2
MDA-MB-231	95.6
MDA-MB-436 [10]	98.3
MDA-MB-453	106
MDA-MB-468	100
MFM-223 [11]	95.2
SK-BR-3 [12]	86.2

normalised viability [%]
Details	3 nM	10 nM	30 nM	100 nM	1000 nM	10000 nM
BT-549 [13]	–	87.2	–	–	91	107
CAL-51 [16]	106	–	98.3	105	–	–
CAL-120 [14]	–	80.5	–	–	85.6	89.5
CAL-148 [15]	96.8	–	103	102	–	–
DU-4475 [17]	92.4	–	99.6	95.7	–	–
HCC1143 [18]	–	99.6	–	–	99.8	97.5
HCC1599 [19]	–	96.2	–	–	106	95.6
HCC1937 [20]	–	72.7	–	–	80.2	91.5
HDQ-P1 [21]	107	–	117	107	–	–
MDA-MB-436 [22]	–	110	–	–	73.3	104
MFM-223 [23]	–	92.4	–	–	83.3	97
SK-BR-3 [24]	–	101	–	–	107	111
